In paper PMC6433957, “Phenylpyrrole fungicides act on triosephosphate isomerase to induce methylglyoxal stress and alter hybrid histidine kinase activity” (Scientific Reports, 2019):

Target: T1, triosephosphate isomerase (TPI) (Saccharomyces cerevisiae, UniProt P00942)
T1 construct: gene TPI1; commercial Triosephosphate isomerase (from S. cerevisiae, Sigma)
T1 sequence (P00942 2-248): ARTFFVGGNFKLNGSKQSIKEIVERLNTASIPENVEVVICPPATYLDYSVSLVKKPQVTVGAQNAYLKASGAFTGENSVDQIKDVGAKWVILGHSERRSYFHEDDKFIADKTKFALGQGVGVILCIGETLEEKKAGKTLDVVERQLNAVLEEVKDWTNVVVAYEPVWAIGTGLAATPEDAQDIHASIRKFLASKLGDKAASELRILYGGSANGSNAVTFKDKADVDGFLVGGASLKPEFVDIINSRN
Test: coupled alpha-glycerophosphate dehydrogenase/NADH assay (A340) with purified TPI; also in vitro methylglyoxal release by TPI (diaminobenzene adduct)
Type: biochemical

N#Cc1c[nH]cc1-c1cccc2c1OC(F)(F)O2 [fludioxonil]
IC50: ~403 µM
